The text below walks through data of patent US20260265178A1, “TERTIARY AMINE DERIVATIVES AND THEIR USES FOR TREATING A VIRAL INFECTION” (ENYO PHARMA, priority 2022, published 2026).

Like-named read-outs stand apart in the source and are kept apart here.

Experiment [1] relates to Respiratory Syncytial Virus (RSV). As to the kind of experiment: Cytopathic effect (CPE) assay, HEp-2 cells infected by RSV, CellTiter-Glo viability readout. Format: cell-based. As to conditions: for IC50: HEp-2 cells, RSV MOI 0.5, 3 days, CellTiter-Glo luminescence. As for the experimental part: Cytopathic Effect (CPE) Assay Experimental Procedure:
• RSV titer: 6.9×10^6 pfu/ml • MOI=pfu used for infection/cell number • 1) HEp-2 cells were seeded in 384-well plates at 5000 cells per well in 25 μl assay medium and incubated for 24 h at 37° C. in 5% CO2. Cells were seeded in each well expect for the top row, which contains medium only (low control). • 2) Compounds were dispensed using the Echo550 Liquid Handler. All compounds were used at 10 mM stock concentration. The positive control Ribavirin was included as control compound in all assays. • 3) Cells were expected to double once over 24 h. • 4) The cells were infected the next day at RSV MOI 0.5, adding 5 μl virus diluted in assay medium. • 5) Non-infected cells were treated with 5 μl assay medium (high control) • 6) Plates were centrifuged at 400 rpm, 10 sec to allow the virus to sink onto the cells. • 7) Cells were incubated at 37° C. in 5% CO2 for 3 days. • 8) 10 μl CellTiter-Glo® (Promega) was added to all wells. • 9) The plate was incubated at RT for 30 min. • 10) Luminescence was measured on the Envision plate reader.
(In general: Cytopathic effects are the visible damage that an infection or toxin causes in cultured cells.)

For experiment [2], the system named is recombinant HRSV expressing the firefly luciferase. Nature of the experiment: In vivo anti-hRSV activity in a mouse model of infection (recombinant HRSV expressing firefly luciferase, bioluminescence). As to conditions: BALB/C mice, 1 mpk intranasally, 5 days post infection, versus mock-treated, p<0.05. As for the experimental part:
FIG. 24: In vivo evaluation of compound #21 anti-hRSV activity in a mouse model of infection. FIG. 24A: Bioluminescence was measured by intranasal injection of 50 μl of D-luciferin (200 mM) and capture of photon emission from the chest at 5 days post infection using the IVIS system. Dorsal and ventral views of mice representative of the results are shown. FIG. 24B: Comparative bioluminescence between compound #21 and mock-treated mice 5 days post infection. Each data point represents mean±s.e.m. Brown-Forsythe Test and Welch ANOVA followed by Dunnett's multiple comparison test; * p<0.05
An engineered recombinant HRSV expressing the firefly luciferase was used in a mouse model of infection described in Rameix-Welti et al., Nature Communications, 2014. BALB/C mice were infected with 50×10^4 p.f.u. of virus and treated intranasally by 1 mpk compound #21 or vehicle (10 mice/group). Bioluminescence was measured by intranasal injection of 50 μl of D-luciferin (200 mM) and capture of photon emission from the chest at 5 days post infection using the IVIS system.
Dorsal and ventral views of mice representative of the results are shown at FIG. 24A. Comparative bioluminescence between compound #21 and mock-treated mice 5 days post infection are shown at FIG. 24B. Each data point represents mean±s.e.m. Brown-Forsythe Test and Welch ANOVA followed by Dunnett's multiple comparison test; * p<0.05.

The mark [3] stands for this setting: human respiratory syncytial virus, 72 h, read-out: IC50.

On to `Cc1cn2nc([C@@H]3CCCCN3C(=O)c3cc(Cl)ccc3NS(C)(=O)=O)cc2nc1N1CC[C@H](N)C1` [Presatovir], for which the concentration for half-maximal inhibition (IC50) (as a rule, the midpoint of a concentration-inhibition curve) in experiment [1] (setting [3]) came to 0.0011 µM.

Take `CC(c1cccc(C(N)=O)c1)N(Cc1cccc(C(N)=O)c1)Cc1cccc(C(N)=O)c1` (stereo not drawn) [Compound #15]: the IC50 in experiment [1] (setting [3]) worked out at 0.0015 µM.

As to `NC(=O)c1cccc(CN(Cc2cccc(C(N)=O)c2)C[C@@H]2CCCN(C(N)=O)C2)c1` [Compound #8], the IC50 in experiment [1] (setting [3]) is 0.1 µM.

Consider `NC(=O)c1cccc(CN(Cc2cccc(C(N)=O)c2)CC2(F)CCCN(C(N)=O)C2)c1` (stereo not drawn) [Compound #20], for which the concentration for half-maximal inhibition (IC50) in experiment [1] (setting [3]) amounted to 0.13 µM.

Take `COC[C@H](c1cccc(C(=O)O)c1)N(Cc1cccc(C(=O)O)c1)Cc1cccc(C(=O)O)c1` [Compound #6]: in experiment [1] (read-out: IC50), the IC50 was found to be 0.2 µM.

`C[C@@H](c1cccc(C(N)=O)c1)N(Cc1cccc(C(N)=O)c1)Cc1cccc(C(N)=O)c1` [Compound #13]: the IC50 in experiment [1] (setting [3]) amounted to 0.0044 µM.

As for `NC(=O)c1cccc(CN(Cc2cccc(C(N)=O)c2)CC2CCN(C(N)=O)C2)c1` (stereo not drawn) [Compound #17], the IC50 result in experiment [1] is on record as “Not calculable”.

In the case of `NC(=O)c1cccc(CN(Cc2cccc(C(N)=O)c2)CC2CCCNC2)c1` (stereo not drawn) [Compound #12], the IC50 in experiment [1] (setting [3]) is 0.13 µM.

For the molecule `CNC(=O)COCCN(Cc1cccc(C(N)=O)c1)Cc1cccc(C(N)=O)c1` [Compound #9], the half-inhibitory concentration (IC50) in experiment [1] (setting [3]) was 2 µM.

For the molecule `COC[C@H](c1cccc(C(=O)O)c1)N(Cc1cccc(C(=O)OC)c1)Cc1cccc(C(=O)OC)c1` [Compound #5], in experiment [1] (read-out: IC50), the IC50 came to 2 µM.

For the molecule `COC[C@H](c1cccc(Br)c1)N(Cc1cccc(C(=O)OC)c1)Cc1cccc(C(=O)OC)c1` [Compound #4], the IC50 in experiment [1] (read-out: IC50) worked out at 0.007 µM.

`NC(=O)c1cccc(CN(Cc2cccc(C(N)=O)c2)CC2CCCN(C(N)=O)C2)c1` (stereo not drawn) [Compound #18]: the 50% inhibitory concentration (IC50) in experiment [1] (setting [3]) turned out to be 0.008 µM.

Turning to `COc1cc(CN(Cc2cccc(C(N)=O)c2)Cc2cccc(C(N)=O)c2)cc(C(N)=O)c1` [Compound #14], in experiment [1] (setting [3]), the IC50 was 0.07 µM.

Take `COC[C@H](c1cccc(C(N)=O)c1)N(Cc1cccc(C(N)=O)c1)Cc1cccc(C(N)=O)c1` [Compound #21, 3-[[[(1S)-1-(3-carbamoylphenyl)-2-methoxy-ethyl]-[(3-carbamoylphenyl)methyl]amino]methyl]benzamide]: in experiment [1] (compared with comparative and positive control compounds, FIGS. 1-23A), the “% viability of cells infected by RSV” value was “higher % of viability”. Besides, in experiment [1] (compound #21 versus comparative compounds), the “IC50 times lower than IC50 of comparative compounds” value is at least 7 times. In addition, the “IC50 times lower than IC50 of the closest structural compound #4” value in experiment [1] (compound #21 versus compound #4) was “around 50 times”. Besides, the IC50 in experiment [1] (setting [3]) is 0.00015 µM. The “bioluminescent signal in the lung” value in experiment [2] was “significantly reduced”.

Regarding `NC(=O)c1cccc(CN(Cc2cccc(C(N)=O)c2)Cc2ccc3[nH]ncc3c2)c1` [Compound #7], in experiment [1] (setting [3]), the IC50 was 3.9 µM.

Consider `NC(=O)COCCN(Cc1cccc(C(N)=O)c1)Cc1cccc(C(N)=O)c1` [Compound #16], for which the half-maximal inhibitory concentration (IC50) in experiment [1] (setting [3]) came to 0.35 µM.

On to `COc1ccc(CN(Cc2cccc(C(N)=O)c2)Cc2cccc(C(N)=O)c2)cc1C(N)=O` [Compound #10], for which the IC50 in experiment [1] (setting [3]) was 0.005 µM.

Regarding `COC(=O)c1cccc(CN(Cc2cccc(C(=O)OC)c2)[C@H](CO)c2cccc(Br)c2)c1` [Compound #3], the IC50 in experiment [1] (read-out: IC50) turned out to be 3.4 µM.

For the molecule `NC(=O)c1cccc(CN(Cc2cccc(C(N)=O)c2)C[C@H]2CCCN(C(N)=O)C2)c1` [Compound #11], the IC50 in experiment [1] (setting [3]) stood at 0.0045 µM.

As for `NC(=O)c1ncn([C@@H]2O[C@H](CO)[C@@H](O)[C@H]2O)n1` [Ribavirin], the IC50 in experiment [1] (setting [3]) was found to be 15 µM.
